These results are taken from ChEMBL document CHEMBL1127434, “Discovery of nanomolar ligands for 7-transmembrane G-protein-coupled receptors from a diverse N-(substituted)glycine peptoid library” (J Med Chem, 1994).

By Ki is commonly meant a dissociation constant, usually derived from enzyme kinetics or from competition with a known ligand. The low end stands for a stronger hold on the target, the high end for a looser hold on the target.

One experiment concerns the target Mu-type opioid receptor (Rattus norvegicus, UniProt P33535). The experiment is described as follows: Compound was evaluated for binding affinity towards mu-specific opiate receptor from rat brain membrane using [3H]DAMGO.
For experiment [1], the target named is T1, Adrenergic receptor alpha-1 (Rattus norvegicus, UniProt P15823+P23944+P43140).
T1 sequence (P15823 whole entry): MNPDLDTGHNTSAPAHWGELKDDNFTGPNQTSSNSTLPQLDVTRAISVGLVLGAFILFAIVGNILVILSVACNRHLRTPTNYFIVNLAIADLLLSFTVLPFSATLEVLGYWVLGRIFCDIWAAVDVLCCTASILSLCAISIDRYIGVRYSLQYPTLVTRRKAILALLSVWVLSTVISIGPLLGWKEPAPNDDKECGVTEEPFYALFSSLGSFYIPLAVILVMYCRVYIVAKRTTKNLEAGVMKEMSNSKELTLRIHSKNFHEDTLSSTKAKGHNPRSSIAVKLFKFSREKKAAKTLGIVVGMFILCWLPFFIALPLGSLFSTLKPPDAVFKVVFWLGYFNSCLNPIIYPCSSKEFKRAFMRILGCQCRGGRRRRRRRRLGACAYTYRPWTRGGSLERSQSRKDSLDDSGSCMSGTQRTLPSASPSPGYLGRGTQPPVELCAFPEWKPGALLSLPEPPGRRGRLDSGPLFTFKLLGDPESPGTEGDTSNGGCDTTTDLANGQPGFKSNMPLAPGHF
T1 sequence (P23944 whole entry): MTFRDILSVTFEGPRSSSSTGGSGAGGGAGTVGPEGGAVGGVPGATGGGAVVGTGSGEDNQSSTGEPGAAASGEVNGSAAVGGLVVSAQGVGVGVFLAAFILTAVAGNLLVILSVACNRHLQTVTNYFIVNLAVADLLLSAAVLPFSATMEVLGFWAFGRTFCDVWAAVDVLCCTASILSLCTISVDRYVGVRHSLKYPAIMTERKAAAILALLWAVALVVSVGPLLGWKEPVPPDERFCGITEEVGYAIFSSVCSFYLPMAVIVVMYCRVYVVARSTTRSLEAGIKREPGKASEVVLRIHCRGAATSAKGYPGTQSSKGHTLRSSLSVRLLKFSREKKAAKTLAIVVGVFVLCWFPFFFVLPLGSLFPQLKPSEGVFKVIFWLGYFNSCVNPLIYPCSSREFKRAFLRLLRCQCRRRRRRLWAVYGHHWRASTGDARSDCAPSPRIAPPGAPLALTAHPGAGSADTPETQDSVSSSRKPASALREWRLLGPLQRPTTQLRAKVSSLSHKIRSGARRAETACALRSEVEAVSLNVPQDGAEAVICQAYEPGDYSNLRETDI
T1 sequence (P43140 whole entry): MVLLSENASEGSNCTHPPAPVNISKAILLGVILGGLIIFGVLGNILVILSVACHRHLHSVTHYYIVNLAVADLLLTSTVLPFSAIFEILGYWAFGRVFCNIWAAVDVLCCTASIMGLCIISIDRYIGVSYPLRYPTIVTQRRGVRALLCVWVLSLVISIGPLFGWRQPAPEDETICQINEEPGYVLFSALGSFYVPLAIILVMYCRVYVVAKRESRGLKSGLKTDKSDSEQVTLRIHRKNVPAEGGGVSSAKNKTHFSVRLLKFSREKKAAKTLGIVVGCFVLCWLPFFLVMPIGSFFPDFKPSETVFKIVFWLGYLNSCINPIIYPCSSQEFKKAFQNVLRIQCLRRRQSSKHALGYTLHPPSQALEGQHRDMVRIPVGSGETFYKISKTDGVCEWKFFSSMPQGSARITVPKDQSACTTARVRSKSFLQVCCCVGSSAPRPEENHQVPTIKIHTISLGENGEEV
The experiment is described as follows: Compound was evaluated for its binding affinity against alfa1 adrenergic receptors. The experiment is classed as protein assay.

Experiment [2] has as its target T1, Adrenergic receptor alpha-1.
Description: Compound was evaluated for binding affinity towards alpha-1 adrenergic receptors from combinatorial peptoid library
The target is the same in experiment [3]. The experiment is described as follows: Compound was evaluated for its binding affinity against alpha-1 adrenergic receptors. It is filed as protein assay.

Each structure is given as a SMILES string.

Mu-type opioid receptor, sequence (P33535 whole entry): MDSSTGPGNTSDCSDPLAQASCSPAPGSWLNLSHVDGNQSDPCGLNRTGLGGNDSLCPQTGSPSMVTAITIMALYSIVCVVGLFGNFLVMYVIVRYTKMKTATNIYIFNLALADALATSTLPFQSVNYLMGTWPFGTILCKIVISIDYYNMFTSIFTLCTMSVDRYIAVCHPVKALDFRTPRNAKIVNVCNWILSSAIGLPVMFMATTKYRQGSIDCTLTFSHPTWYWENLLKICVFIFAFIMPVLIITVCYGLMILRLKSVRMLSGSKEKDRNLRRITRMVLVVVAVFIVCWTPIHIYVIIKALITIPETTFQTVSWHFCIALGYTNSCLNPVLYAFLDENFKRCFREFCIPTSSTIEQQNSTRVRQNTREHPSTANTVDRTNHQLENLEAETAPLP

`COc1ccc(CN(CC(=O)N(CCc2ccc(O)cc2)CC(N)=O)C(=O)CNCC(c2ccccc2)c2ccccc2)cc1OC`: at Mu-type opioid receptor, the affinity corresponds to a Ki of 31 nM. In turn, `NC(=O)CN(CCc1ccccc1)C(=O)CN(C(=O)CNCCc1ccc(O)cc1)c1ccc(-c2ccccc2)cc1` gave an inhibition constant Ki in experiment [1] of 5 nM. That is a single-digit nanomolar value. Take `NC(=O)CN(CCc1ccccc1)C(=O)CN(C(=O)CNCCc1ccccc1)c1ccc(-c2ccccc2)cc1`: the Ki in experiment [2] is reported as 4 nM. For `NC(=O)CN(C(=O)CN(C(=O)CNCCc1ccc(O)cc1)c1ccc(-c2ccccc2)cc1)c1ccc(-c2ccccc2)cc1`, the Ki in experiment [3] is given as 310 nM. In other words, the sub-micromolar range. In turn, `CCCCCN(CC(=O)N(CCc1ccc(O)cc1)CC(N)=O)C(=O)CNCC(c1ccccc1)c1ccccc1` gave a Ki on Mu-type opioid receptor of 46 nM. As for `NC(=O)CN(CCc1ccccc1)C(=O)CN(C(=O)CNCCc1ccc(O)cc1)c1ccc(Oc2ccccc2)cc1`, the Ki in experiment [3] came out at 140 nM.

Take `NC(=O)CN(CCc1ccc(O)cc1)C(=O)CN(Cc1ccc2c(c1)OCO2)C(=O)CNCC(c1ccccc1)c1ccccc1`: at Mu-type opioid receptor, the inhibition constant Ki was 6 nM.
